Reference: paper PMC10699586 (Journal of molecular biology, 2023)
Where a name gives a salt, the structure may show the parent alone.

Target: T1, dysferlin C2A domain (dysf C2A) (Homo sapiens, UniProt O75923)
T1 sequence (O75923 1-129): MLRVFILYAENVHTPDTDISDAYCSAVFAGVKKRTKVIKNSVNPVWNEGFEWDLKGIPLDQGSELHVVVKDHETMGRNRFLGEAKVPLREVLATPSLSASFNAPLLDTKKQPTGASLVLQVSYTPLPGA
Experiment: […]-TROSY NMR titration, single-site fast-exchange fit
Assay type: binding

**Q.** How did the Kd turn out when `O=P(O)(O)O[C@@H]1[C@H](O)[C@H](O)[C@@H](OP(=O)(O)O)[C@H](OP(=O)(O)O)[C@H]1O` [IP3, D-myo-Inositol 1,4,5-tris-phosphate trisodium salt] was run?
**A.** Its Kd is 12 to 15 µM.
